Where a SMILES comes first, the peptide text is derived from it. Bridges are numbered along the chain shown (N, C = ends). [ ]: non-standard residue; d: D form. Tle = CC(C)(C)[C@H](N)C(=O)O; Nle = CCCC[C@H](N)C(=O)O; Orn = NCCC[C@H](N)C(=O)O; Dab = NCC[C@H](N)C(=O)O; Dap = NC[C@H](N)C(=O)O
What was measured:
Assay type in all cases: cell-based
[1] = test system: Acinetobacter baumannii 872842; details: 872842
[2] = test system: Acinetobacter baumannii DSM 30008; details: DSM 30008
Summary of the method: (§1)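 Antibacterial activity is measured as MIC (μg/mL) by standard CLSI microdilution. Inocula of about 10^6 CFU/mL in MH-II broth meet two-fold peptide dilutions in medium with 0.002% Polysorbate 80, and growth is scored visually after 18-20 hours at 35° C.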

[3] = test system: Escherichia coli 926415; details: 926415
[4] = test system: Escherichia coli ATCC 25922; details: ATCC 25922
Summary of the method: as §1

[5] = test system: Klebsiella pneumoniae 968733; details: 968733
[6] = test system: Klebsiella pneumoniae SSI #3010; details: SSI #3010
Summary of the method: as §1

[7] = test system: Pseudomonas aeruginosa ATCC 27853; details: ATCC 27853
Summary of the method: as §1

[8] = test system: human red blood cells (hRBC); assay: Hemolysis of human red blood cells; details: red cells of human, 1 h, 100 μg/mL
Summary of the method: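 Fresh human red blood cells are washed in PBS, then shaken with peptide (100 μg/mL) at 37° C. for 1 h, final erythrocyte density about 0.9×10^9 cells/mL. After centrifugation, diluted supernatants are read at 540 nm against buffer (0%) and Triton X-100 (100%) lysis controls.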

SMILES	Acinetobacter baumannii 872842 MIC [1] [mg/L]	Acinetobacter baumannii DSM 30008 MIC [2] [mg/L]	Escherichia coli 926415 MIC [3] [mg/L]	Escherichia coli ATCC 25922 MIC [4] [mg/L]	Klebsiella pneumoniae 968733 MIC [5] [mg/L]	Klebsiella pneumoniae SSI #3010 MIC [6] [mg/L]	Pseudomonas aeruginosa ATCC 27853 MIC [7] [mg/L]	Hemolysis at 100 μg/mL [8] [%]
CCCC[C@@H]1NC(=O)[C@@H]2CCCN2C(=O)[C@H]2CCCN2C(=O)[C@H](CO)NC(=O)[C@H](C)NC(=O)[C@H](C(C)(C)C)NC(=O)[C@@H](NC(=O)[C@H](Cc2c[nH]c3ccccc23)NC(C)=O)CSSC[C@@H](C(=O)N[C@@H](CCN)C(=O)NCC(=O)N[C@H](C(=O)N[C@@H](CCN)C(=O)N[C@H]2CCNC(=O)[C@H]([C@@H](C)O)NC(=O)[C@H](CCN)NC(=O)[C@H](CCN)NC(=O)[C@H](CC(C)C)NC(=O)[C@@H](Cc3ccccc3)NC(=O)[C@H](CCN)NC2=O)[C@@H](C)O)NC(=O)[C@H](Cc2ccc(O)cc2)NC(=O)[C@H](CO)NC1=O [Ex. 31] (Ac-WC[Tle]AS[dP]P[Nle]SYC[Dab]GT[Dab][Dab][Dab][dF]L[Dab][Dab]T; disulfide 2-11; lactam 16-C)	1	0.125	1.5	0.5	0.75	0.25	1	2
CCCC[C@@H]1NC(=O)[C@@H]2CCCN2C(=O)[C@H]2CCCN2C(=O)[C@H](CO)NC(=O)[C@H](C)NC(=O)[C@H](C(C)(C)C)NC(=O)[C@@H](NC(=O)[C@H](Cc2c[nH]c3ccccc23)NC(C)=O)CSSC[C@@H](C(=O)N[C@@H](CCN)C(=O)N[C@H](C(=O)N[C@H](C)C(=O)N[C@@H](CCN)C(=O)N[C@H]2CCNC(=O)[C@H]([C@@H](C)O)NC(=O)[C@H](CCN)NC(=O)[C@H](CCN)NC(=O)[C@H](CC(C)C)NC(=O)[C@@H](Cc3ccccc3)NC(=O)[C@H](CCN)NC2=O)[C@@H](C)O)NC(=O)[C@H](Cc2ccc(O)cc2)NC(=O)[C@H](CO)NC1=O [Ex. 32] (Ac-WC[Tle]AS[dP]P[Nle]SYC[Dab]T[dA][Dab][Dab][Dab][dF]L[Dab][Dab]T; disulfide 2-11; lactam 16-C)	0.25	0.125	0.5	0.125	1	0.25	0.25	2
CCCC[C@@H]1NC(=O)[C@@H]2CCCN2C(=O)[C@H]2CCCN2C(=O)[C@H](CO)NC(=O)[C@H](C)NC(=O)[C@H](C(C)(C)C)NC(=O)[C@@H](NC(=O)[C@H](Cc2c[nH]c3ccccc23)NC(C)=O)CSSC[C@@H](C(=O)N[C@@H](CCN)C(=O)N[C@H](C(=O)N[C@@H](CCN)C(=O)NCC(=O)N[C@H]2CCNC(=O)[C@H]([C@@H](C)O)NC(=O)[C@H](CCN)NC(=O)[C@H](CCN)NC(=O)[C@H](CC(C)C)NC(=O)[C@@H](Cc3ccccc3)NC(=O)[C@H](CCN)NC2=O)[C@@H](C)O)NC(=O)[C@H](Cc2ccc(O)cc2)NC(=O)[C@H](CO)NC1=O [Ex. 33] (Ac-WC[Tle]AS[dP]P[Nle]SYC[Dab]T[Dab]G[Dab][Dab][dF]L[Dab][Dab]T; disulfide 2-11; lactam 16-C)	0.25	0.125	1	0.25	0.75	0.5	0.5	1
CCCC[C@@H]1NC(=O)[C@@H]2CCCN2C(=O)[C@H]2CCCN2C(=O)[C@H](CO)NC(=O)[C@H](C)NC(=O)[C@H](C(C)(C)C)NC(=O)[C@@H](NC(=O)[C@H](Cc2c[nH]c3ccccc23)NC(C)=O)CSSC[C@@H](C(=O)N[C@@H](CCN)C(=O)N[C@H](C(=O)N[C@@H](CCN)C(=O)N[C@@H](CCN)C(=O)N[C@H]2CCNC(=O)[C@H]([C@@H](C)O)NC(=O)[C@H](CCN)NC(=O)[C@H](CCN)NC(=O)[C@H](CC(C)C)NC(=O)[C@@H](Cc3ccccc3)NC(=O)[C@H](CCN)NC2=O)[C@@H](C)O)NC(=O)[C@H](Cc2ccc(O)cc2)NC(=O)[C@H](CO)NC1=O [Ex. 34] (Ac-WC[Tle]AS[dP]P[Nle]SYC[Dab]T[Dab][Dab][Dab][Dab][dF]L[Dab][Dab]T; disulfide 2-11; lactam 16-C)	0.125	0.25	0.25	0.0625	1	0.125	0.125	1
CCCC[C@@H]1NC(=O)[C@@H]2CCCN2C(=O)[C@H]2CCCN2C(=O)[C@H](CO)NC(=O)[C@H](C)NC(=O)[C@H](C(C)(C)C)NC(=O)[C@@H](NC(=O)[C@H](Cc2c[nH]c3ccccc23)NC(=O)[C@H](CCN)NC(C)=O)CSSC[C@@H](C(=O)N[C@@H](CCCN)C(=O)N[C@@H](CCN)C(=O)N[C@H]2CCNC(=O)[C@H]([C@@H](C)O)NC(=O)[C@H](CCN)NC(=O)[C@H](CCN)NC(=O)[C@H](CC(C)C)NC(=O)[C@@H](Cc3ccccc3)NC(=O)[C@H](CCN)NC2=O)NC(=O)[C@H](Cc2ccc(O)cc2)NC(=O)[C@H](CO)NC1=O [Ex. 35] (Ac-[Dab]WC[Tle]AS[dP]P[Nle]SYC[Orn][Dab][Dab][Dab][dF]L[Dab][Dab]T; disulfide 3-12; lactam 15-C)	1	0.5	0.5	0.25	2	0.25	1	1
CCCC[C@@H]1NC(=O)[C@@H]2CCCN2C(=O)[C@H]2CCCN2C(=O)[C@H](CO)NC(=O)[C@H](C)NC(=O)[C@H](C(C)(C)C)NC(=O)[C@@H](NC(=O)[C@H](Cc2c[nH]c3ccccc23)NC(=O)[C@H](CCN)NC(C)=O)CSSC[C@@H](C(=O)N[C@@H](CCCN)C(=O)N[C@H](C(=O)N[C@@H](CCN)C(=O)N[C@H]2CCNC(=O)[C@H]([C@@H](C)O)NC(=O)[C@H](CCN)NC(=O)[C@H](CCN)NC(=O)[C@H](CC(C)C)NC(=O)[C@@H](Cc3ccccc3)NC(=O)[C@H](CCN)NC2=O)[C@@H](C)O)NC(=O)[C@H](Cc2ccc(O)cc2)NC(=O)[C@H](CO)NC1=O [Ex. 36] (Ac-[Dab]WC[Tle]AS[dP]P[Nle]SYC[Orn]T[Dab][Dab][Dab][dF]L[Dab][Dab]T; disulfide 3-12; lactam 16-C)	0.5	0.25	0.25	0.25	0.5	0.25	0.5	<1
CCCC[C@@H]1NC(=O)[C@@H]2CCCN2C(=O)[C@H]2CCCN2C(=O)[C@H](CO)NC(=O)[C@H](C)NC(=O)[C@H](C(C)(C)C)NC(=O)[C@@H](NC(=O)[C@H](Cc2c[nH]c3ccccc23)NC(=O)[C@@H](N)CN)CSSC[C@@H](C(=O)N[C@@H](CCN)C(=O)N[C@H](C(=O)N[C@@H](CCN)C(=O)N[C@H]2CCNC(=O)[C@H]([C@@H](C)O)NC(=O)[C@H](CCN)NC(=O)[C@H](CCN)NC(=O)[C@H](CC(C)C)NC(=O)[C@@H](Cc3ccccc3)NC(=O)[C@H](CCN)NC2=O)[C@@H](C)O)NC(=O)[C@H](Cc2ccc(O)cc2)NC(=O)[C@H](CO)NC1=O [Ex. 37] (H-[Dap]WC[Tle]AS[dP]P[Nle]SYC[Dab]T[Dab][Dab][Dab][dF]L[Dab][Dab]T; disulfide 3-12; lactam 16-C)	0.5	0.125	0.5	0.125	2	0.125	0.5	2
CCCC[C@@H]1NC(=O)[C@@H]2CCCN2C(=O)[C@H]2CCCN2C(=O)[C@H](CO)NC(=O)[C@H](C)NC(=O)[C@H](C(C)(C)C)NC(=O)[C@@H](NC(=O)[C@H](Cc2c[nH]c3ccccc23)NC(=O)[C@@H](N)CCCN)CSSC[C@@H](C(=O)N[C@@H](CCN)C(=O)N[C@H](C(=O)N[C@@H](CCN)C(=O)N[C@H]2CCNC(=O)[C@H]([C@@H](C)O)NC(=O)[C@H](CCN)NC(=O)[C@H](CCN)NC(=O)[C@H](CC(C)C)NC(=O)[C@@H](Cc3ccccc3)NC(=O)[C@H](CCN)NC2=O)[C@@H](C)O)NC(=O)[C@H](Cc2ccc(O)cc2)NC(=O)[C@H](CO)NC1=O [Ex. 38] (H-[Orn]WC[Tle]AS[dP]P[Nle]SYC[Dab]T[Dab][Dab][Dab][dF]L[Dab][Dab]T; disulfide 3-12; lactam 16-C)	0.5	0.5	0.125	0.25	2	0.25	0.25	1
